Reference: patent publication US9062308B2, “Compositions and methods for treatment of tamoxifen resistant breast cancer” (The Johns Hopkins University, priority 2011, dated 2015)

Columns and labels:
TGFα and HB-EGF = TGFα and HB-EGF expression in MCF-10A-B7 cells under EGFR inhibition; format: cell-based
MCF-7-TMR cells = test: Soft agar colony formation in MCF-7-TMR cells; format: cell-based
Description: (§1) (2A) Immunoblot analysis of Phospho-EGFR (Y1068), EGFR, Phospho-MAPK, MAPK, Phospho-ERα (S118), ERα, and HOXB7 expression in MCF-7 cells treated long-term with either vehicle or 0.1 μM TAM (TMR1) or 1 μM TAM (TMR2). (2B) Immunoblot analysis of EGFR, Phospho-MAPK, MAPK and HOXB7 expression in MCF-7-TMR cells and BT474 transfected with either scrambled sequence siRNA or HOXB7-specific siRNA. (2C) Soft agar colony formation in BT474 cells and MCF-7-TMR cells transfected with either scrambled sequence siRNA or HOXB7-specific siRNA treated with Vehicle or 1 μM TAM.
(§2) HOXB7 in the acquisition of anti-estrogen resistance. Because of the observation of a striking similarity in phenotype between prolonged endocrine therapy primed TAM-resistant models and our HOXB7 overexpressing cells, the hypothesis that HOXB7 is a mediator of anti-estrogen resistance was investigated. MCF-7 cell lines were derived, and exposed to either vehicle or TAM (0.1 μM or 1 μM) for over 12 months (designated MCF-7-TMR1 or MCF-7-TMR2 respectively).

MCF-7-B7 cells [1] = test: Soft agar colony formation by MCF-7-B7 cells; format: cell-based
Description: (§3) FIG. 3 depicts evidence that HOXB7 promotes TAM resistance. (3A) Immunoblot analysis of Phospho-EGFR, EGFR, P-MAPK, MAPK and HOXB7 expression levels in MCF-7-Vec and MCF-7-HOXB7 cells. (3B) Tumor growth curve of MCF-7-HOXB7 cells implanted s.c. in athymic Swiss female mice and treated with either vehicle or TAM (83.3 μg/day), in the absence of an exogenous estrogen supplement. […] (3D) Semi quantitative RT-PCR analysis of mRNA expression levels of TGFα, HB-EGF and Amphiregulin in HOXB7 expressing MCF-7 cells and their vector controls (left); Amphiregulin or TGFα mRNA expression in MCF-7-vec and MCF-7-B7 cells treated with either scrambled sequence siRNA or ERα-specific siRNA (right) (3E) Diagram representing the HOXB7 binding sites in EGFR promoter region. MCF-7 cells were transfected with pcDNA3-Flag-HOXB7 and Vector plasmid, ChIP was performed by IP with either anti-Flag M2 antibody or control IgG. (3F) Luciferase activity of deletion/truncation constructs of the EGFR promoter, with (solid box) and without (slashed box) transfected HOXB7 plasmid, to map minimal region necessary for activation by HOXB7.

MCF-7-Vec cells = test: TAM treatment in culture, apoptosis and cell viability, MCF-7-Vec cells; format: cell-based; conditions: MCF-7-Vec cells in culture
MCF-7-B7 cells [2] = test: TAM treatment in culture, apoptosis and cell viability, MCF-7-B7 cells; format: cell-based; conditions: MCF-7-B7 cells in culture
MCF-7-B7 xenografts = test: Xenograft analysis, tumor growth of MCF-7-B7 cells implanted s.c. in athymic mice; format: in vivo; conditions: MCF-7-B7 xenografts in immunodeficient mice; TAM 83.3 μg/day; no exogenous estrogen supplement
Description: as §3
Xenograft Analysis. […] At necropsy, primary tumors, liver, lung and spleen were evaluated for the presence of macroscopic tumors. […]

[3] = system: EGFR, p44/42 MAPK and ERα phosphorylation; test: EGFR signaling in estrogen deprived MCF-7-B7 cells treated with TAM; format: cell-based
Source text: These observations indicate that under the treatment conditions, nongenomic ERα action occurred to activate EGFR signaling.

HOXB7 mRNA = test: Real time quantitative PCR analysis of HOXB7 mRNA levels; format: cell-based
Description: (4A) Real time quantitative PCR analysis of HOXB7 mRNA levels in MCF-7 cells. Cells were incubated in estrogen deprived condition for 72 hours [DMEM phenol red-free medium containing 5% Dextran charcoal stripped serum (DCC-FBS)]; the cells were then treated with 0.1-100 nM estrogen (E2); […]; Inset: Semi-quantitative RT-PCR analysis of HOXB7 mRNA following 1 uM TAM treatment for 24 hour. (4B) Real time quantitative PCR analysis of HOXB7. mRNA levels in MDA-MB-231 and MDA-MB-453 cells were transiently transfected with ERα expression plasmid and vector control for 48 hours. ERIN, a ERα overexpressed cell line, was used with MCF10A as a control. (4C) Immunoblot analysis of HOXB7 and ERα expression levels in transient transfectants of MDA-MB-231-ERα.
Real-time PCR of HOXB7 expression. HOXB7 gene expression was quantitated by Taqman real-time quantitative PCR in triplicate in 96-well plate using an ABI 7900HT (Applied Biosystems) using cDNA derived from our previously published cohort of tumor samples (Cancer research 62(3):827-834). The sequences of the HOXB7 PCR primer pairs and fluorogenic MGB probe (5′ to 3′), respectively, are: AAAACCTACCACTCGCGTGTTC (SEQ ID NO: 5), GGA CGG GAA GCA AGA AGC A (SEQ ID NO: 6), and VIC-CAA GCG CCT GGC TG (SEQ ID NO: 7).

[4] = system: EGFR, MAPK, ERα and HOXB7; test: Immunoblot analysis of MCF-7 cells treated long-term with TAM; format: cell-based
Description: as §1, §2

LTED cells = conditions: MCF-7-LTED cells; cited from earlier work
[5] = system: EGFR, p44/42 MAPK, ARG and TGFα; test: EGFR activity and EGFR ligand levels in MCF-7-B7 cells after ER downregulation; format: cell-based
Description: as §3

[6] = system: ERα-positive breast cancer; conditions: patients with acquired resistance who progress on TAM; cited from earlier work
BT474 cells = test: Soft agar colony formation in BT474 cells; format: cell-based; conditions: 1 μM gefitinib and 1 μM TAM
Description: as §1

Q: Which “elevated expression of TGFα and HB-EGF” value (TGFα and HB-EGF) does the source give for `COc1cc2ncnc(Nc3cccc(Cl)c3)c2cc1OC` [AG1478] here?
A: significantly abrogated

Q: What does the source list for `CC/C(=C(\c1ccccc1)c1ccc(OCCN(C)C)cc1)c1ccccc1` [TAM, tamoxifen]?
A: resistance to TAM treatment by colony formation assay (MCF-7-TMR cells; MCF-7-TMR1 cells (0.1 μM TAM for over 12 months), data not shown): significant resistance to TAM treatment; colony formation in soft agar in the presence of tamoxifen (MCF-7-B7 cells [1]; TAM 1 μM): at frequencies similar to vehicle treated cells; apoptosis and cell viability (MCF-7-Vec cells): increased apoptosis and decreased cell viability; sensitivity to TAM treatment (apoptosis, cell viability) (MCF-7-B7 cells [2]): minimally sensitive; tumor growth response to TAM (MCF-7-B7 xenografts): failed to respond to the inhibitory effects of TAM; active EGFR, p44/42 MAPK activity and ERα phosphorylation ([3]; MCF-7-B7 cells in estrogen deprived conditions, TAM for 24 hours, vs MCF-7-Vec cells): significantly higher levels of active forms of EGFR, increased p44/42 MAPK activity and ERα phosphorylation; phosphorylation of EGFR, p44 MAPK and ER ([3]; estrogen deprived MCF-7-B7 cells, 1 μM TAM for 0-30 minutes, data not shown): elevated phosphorylation of EGFR, activation of p44 MAPK, and ER phosphorylation at Serine 118; HOXB7 mRNA levels (HOXB7 mRNA; MCF-7 and T47D cells, tamoxifen in medium containing 10% FBS): increased; downregulation of HOXB7 expression by estradiol (HOXB7 mRNA; tamoxifen added to estradiol): abrogated; HOXB7 expression ([4]; MCF-7-TMR cells (long-term TAM)): upregulated; levels of HOXB7 expression over time ([4]; MCF-7 cells, 0.1 μM TAM, 0, 2, 4, 6 months, data not shown): progressively increasing levels of HOXB7 expression; expression of EGFR, activated MAPK and ERα, total ERα ([4]; MCF-7 cells, TAM 0.1 μM or 1 μM for over 12 months): elevated expression of EGFR and activated MAPK and ERα, but no significant change of total ERα; sensitivity of LTED cells (LTED cells): refractory

Q: With `C[C@]12CC[C@@H]3c4ccc(O)cc4CC[C@H]3[C@@H]1CC[C@@H]2O` [estradiol, 17β-estradiol] as the molecule, how does the HOXB7 expression (HOXB7 mRNA; estradiol stimulation in estrogen-deprived growth conditions (5% charcoal stripped serum)) read?
A: significantly reduced

Q: For `C[C@]12CC[C@@H]3c4ccc(O)cc4C[C@@H](CCCCCCCCC[S+]([O-])CCCC(F)(F)C(F)(F)F)[C@H]3[C@@H]1CC[C@@H]2O` (stereo partly shown) [fulvestrant], which “EGFR and p44/42 MAPK activity” value ([5]; HOXB7 overexpression (MCF-7-B7 cells)) is on record?
A: modestly reduced increases in EGFR and p44/42 MAPK activity

Q: What about the “levels of the autocrine/paracrine EGFR ligands (ARG and TGFα)” value ([5]; MCF-7-B7 cells) of the same molecule?
A: significant reduction

Q: And the “sensitivity of LTED cells” value (LTED cells)?
A: sensitive

Q: What about the patients who respond [6] of the same molecule?
A: 20%

Q: What does the source list for `COc1cc2ncnc(Nc3ccc(F)c(Cl)c3)c2cc1OCCCN1CCOCC1` [gefitinib]?
A: effect on TAM action, soft agar colony formation (BT474 cells): dramatically converted TAM to a potent antagonist; effect on TAM action, soft agar colony formation (MCF-7-TMR cells; MCF-7-TMR cells, 1 μM gefitinib and 1 μM TAM): dramatically converted TAM to a potent antagonist; re-sensitization to TAM treatment, soft agar colony formation (MCF-7-B7 cells [1]; 1 μM gefitinib with TAM 1 μM): significantly re-sensitized them to TAM treatment
